Data taken from patent US10080714B2, “Peptides and their use in the treatment of hair” (Avon Products, Inc., priority 2015, dated 2018).
Square brackets hold non-standard residues; d marks the D form. Ends that are not written are not given here. Ava = NCCCCC(=O)O

Columns and labels:
Format in all cases: cell-based, human
[1] = tested on: Hair Germinal Matrix Cells; experiment: Proliferation of hair matrix cells (BrdU proliferation kit); settings: for Proliferation (%): 24 h treatment, percent change in cell proliferation relative to vehicle control; for Effect on Hair Germinal Matrix Cell proliferation (in words): at the concentrations tested
Description: Hair Germinal Matrix Cells (ScienCell, Carlsbad, Calif.) were grown in 96-well tissue culture plate (5000 cells/well) in MSCM medium supplemented with growth factors (ScienCell, Carlsbad, Calif.). Cells were incubated overnight at 37° C. and 5% CO2. Next, media were aspirated and cells were incubated in MSCM medium without growth supplement for 4-6 h, followed by treatment with given concentration of peptides for 24 h. After treatment cells were incubated with BrdU for 4 h and proliferation rate was evaluating using BrdU proliferation kit from Cell Signaling (Danvers, Mass.). The results are summarized in Table 2 below as percent change cell proliferation relative to vehicle control (peptide concentrations provided in parentheses) using the following key: 0: <10%, +:11-20%, ++:21-40%, +++:41-60%, ++++:>60%.

[2] = tested on: Keratin35; experiment: Keratin 35 mRNA expression in Hair Germinal Matrix Cells (qPCR); settings: for Keratin 35 mRNA expression: 0.0001 wt. % peptide, 48 h, percent change in mRNA expression relative to vehicle control, normalized to GAPDH; for Effect on Keratin 35 mRNA expression (in words): at the concentration tested
Description: (§1) Hair Germinal Matrix Cells (ScienCell, Carlsbad, Calif.) were grown in 6-well tissue culture plate (1.5×10^5 cells/well) in MSCM medium supplemented with growth factors (ScienCell, Carlsbad, Calif.). Cells were incubated overnight at 37° C. and 5% CO2. Next day, cells were changed into fresh media and treated with given concentration of peptides for 48 h. After treatment, cells were washed with ice cold PBS, collected into RLT lysis buffer and RNA was extracted using RNeasy Mini Kit (Qiagen, Valencia, Calif.) following manufactures recommendations. 200 ng of RNA was used for cDNA synthesis using High Capactiy cDNA Reverse Transcription Kit (Life Technologies, Carlsbad, Calif.). 1 μL of undiluted cDNA was used per qPCR reaction. Primers used were purchased from Life technologies (Carlsbad, Calif.). Following primers were used: Keratin35 (Hs0060557_g1), KAP8 (Hs00545666_s1), KAP11 (Hs00545667_s1), P-cadherin (Hs00999925_m1). Expression was normalized to GAPDH. The conditions of q-PCR were: an incubation step at 50° C. for 2 minutes and an enzyme activation step at 95° C. for 10minutes; followed by 45 cycles of 95° C. for 30 seconds and 60° C. for 1 minute. CT value was obtained from the software of the Stratagene MX2005P.

[3] = tested on: KAP8; experiment: KAP8 mRNA expression in Hair Germinal Matrix Cells (qPCR); settings: for KAP 8 mRNA expression: 0.0001 wt. % peptide, 48 h, percent change in mRNA expression relative to vehicle control, normalized to GAPDH; for Effect on Keratin Associated Protein 8 mRNA expression (in words): at the concentration tested
Description: as §1

[4] = tested on: KAP11; experiment: KAP11 mRNA expression in Hair Germinal Matrix Cells (qPCR); settings: for KAP 11 mRNA expression: 0.0001 wt. % peptide, 48 h, percent change in mRNA expression relative to vehicle control, normalized to GAPDH; for Effect on KAP11 mRNA expression (in words): at the concentration tested
Description: as §1

[5] = tested on: P-cadherin; experiment: P-cadherin mRNA expression in Hair Germinal Matrix Cells (qPCR); settings: for P-cadherin mRNA expression: 0.0001 wt. % peptide, 48 h, percent change in mRNA expression relative to vehicle control, normalized to GAPDH; for Effect on levels of desmosomal protein P-cadherin (in words): at the concentration tested
Description: as §1

Question: Which “Proliferation (%)” value ([1]; 0.00001 wt. % peptide) does the source give for “K-Ava-PVGK: K-Ava-derivative of tripeptide PVG; Ava = amino valeric acid (K[Ava]PVGK)” here?
Answer: Its value is 0 (0: <10%).

Question: What about the “Proliferation (%)” value ([1]; 0.0001 wt. % peptide) of the same substance?
Answer: The value was 0 (0: <10%).

Question: And the “Keratin 35 mRNA expression” value [2]?
Answer: The value was “+++ (+++: 41-60%)”.

Question: What about the “Effect on Keratin 35 mRNA expression (in words)” value [2] of the same substance?
Answer: Its value is “effective in upregulating”.

Question: What about the “KAP 8 mRNA expression” value [3] of the same substance?
Answer: The value was “++++ (++++: >60%)”.

Question: And the “Effect on Keratin Associated Protein 8 mRNA expression (in words)” value [3]?
Answer: Its value is “effective in upregulating”.

Question: And the “KAP 11 mRNA expression” value [4]?
Answer: Its value is “+++ (+++: 41-60%)”.

Question: And the “Effect on KAP11 mRNA expression (in words)” value [4]?
Answer: The value was “effective in upregulating”.

Question: And the “P-cadherin mRNA expression” value [5]?
Answer: Its value is 0 (0; <10%).

Question: How did the “Proliferation (%)” value ([1]; 0.00001 wt. % peptide) turn out when “K-Ava-YNTK: K-Ava-derivative of tripeptide YNT; Ava = amino valeric acid (K[Ava]YNTK)” was run?
Answer: The value was 0 (0: <10%).

Question: And the “Proliferation (%)” value ([1]; 0.0001 wt. % peptide)?
Answer: Its value is 0 (0: <10%).

Question: What about the “Keratin 35 mRNA expression” value [2] of the same substance?
Answer: Its value is 0 (0; <10%).

Question: What about the “Effect on Keratin 35 mRNA expression (in words)” value [2] of the same substance?
Answer: Its value is “not effective”.

Question: And the “KAP 8 mRNA expression” value [3]?
Answer: The value was 0 (0; <10%).

Question: And the “Effect on Keratin Associated Protein 8 mRNA expression (in words)” value [3]?
Answer: The value was “not effective”.

Question: And the “KAP 11 mRNA expression” value [4]?
Answer: The value was 0 (0; <10%).

Question: And the “Effect on KAP11 mRNA expression (in words)” value [4]?
Answer: The value was “not effective”.

Question: What about the “P-cadherin mRNA expression” value [5] of the same substance?
Answer: The value was “+++ (+++: 41-60%)”.

Question: And the “Effect on levels of desmosomal protein P-cadherin (in words)” value [5]?
Answer: The value was “effect was enhanced”.

Question: What does the source list for “YNT: tripeptide of the amino acid sequence YNT”?
Answer: Proliferation (%) ([1]; 0.00001 wt. % peptide): 0 (0: <10%); Proliferation (%) ([1]; 0.0001 wt. % peptide): ++ (++:21-40%); Effect on Hair Germinal Matrix Cell proliferation (in words) [1]: effectively increase; Keratin 35 mRNA expression [2]: 0 (0; <10%); KAP 8 mRNA expression [3]: ++++ (++++: >60%); Effect on Keratin Associated Protein 8 mRNA expression (in words) [3]: effectively increase; KAP 11 mRNA expression [4]: ++++ (++++: >60%); P-cadherin mRNA expression [5]: + (+: 11-20%); Effect on levels of desmosomal protein P-cadherin (in words) [5]: effective in boosting

Question: What does the source list for “PVG: tripeptide of the amino acid sequence PVG”?
Answer: Proliferation (%) ([1]; 0.00001 wt. % peptide): 0 (0: <10%); Proliferation (%) ([1]; 0.0001 wt. % peptide): + (+:11-20%); Effect on Hair Germinal Matrix Cell proliferation (in words) [1]: effectively increase; Keratin 35 mRNA expression [2]: 0 (0; <10%); KAP 8 mRNA expression [3]: ++++ (++++: >60%); Effect on Keratin Associated Protein 8 mRNA expression (in words) [3]: effectively increase; KAP 11 mRNA expression [4]: 0 (0; <10%); P-cadherin mRNA expression [5]: 0 (0; <10%)
